Results reported in patent US12528944B2, “Live-cell fluorescent mitochondrial stains” (HOWARD HUGHES MEDICAL INSTITUTE, priority 2022, dated 2026).
Entries after “also recorded” stand apart in the source; their conditions may differ.

What was measured:
[1] = Quantum yield determination (absolute, integrating sphere)
Description: Unless otherwise noted, Φf values were measured in PBS, pH 7.4. This instrument uses an integrating sphere to determine photons absorbed and emitted by a sample. Measurements were carried out using dilute samples (A<0.1) and self-absorption corrections^24 were performed using the instrument software. Reported values are averages (n=3).

[2] = UV-vis and fluorescence spectroscopy; conditions: for absorptivity, quantum yield and brightness in nonpolar conditions relative to PBS: SDS micelles and dioxane:water mixtures
Description: Spectroscopy was performed using 1-cm path length, 3.5-mL quartz cuvettes from Starna Cells. All measurements were taken at ambient temperature (22±2° C.). […] Fluorescence spectra were recorded on a Cary Eclipse fluorometer (Varian). Unless otherwise noted, maximum absorption wavelength (λabs), extinction coefficient (ε), and maximum emission wavelength (λem) were measured in PBS, pH 7.4. Reported values and spectra are averages (n=3).

[3] = Chemical stability by fluorescence in different buffers and media; type: physicochemical; conditions: 1 μM; citrate pH 5, PBS pH 7.4, Tris pH 9, DMEM, DMEM+10% FBS
Description: Measurement of chemical stability by fluorescence (FIG. 5A-5B). To compare the chemical stability of 15 in different conditions using changes in fluorescence, samples (1 μM) of 15 were prepared in the following solutions: citrate buffer, pH 5; PBS, pH 7.4; Tris buffer, pH 9; DMEM; and DMEM containing 10% v/v FBS (DMEM+FBS). 200 μL of each solution (n=3) was placed in a black, clear-bottom 96-well microplate (Nunc, 165305) and sealed with an adhesive film. The fluorescence of the DAB dye was monitored using 445 nm excitation and 510-550 nm emission (integrated signal) reading from the bottom of the plate using a TECAN Spark microplate reader controlled with SparkControl software.

[4] = tested on: mitochondria of live U2OS cells; experiment: Cellular retention after dye-free media exchange washes; type: cell-based; conditions: 1 h, 37° C., 0, 1 or 2 dye-free media washes
Description: To compare cellular retention of 15, 20, and MitoView 405, U2OS cells were incubated with 15 (200 nM), 20 (200 nM) or MitoView 405 (100 nM; Biotium) for 1 h at 37° C.

[5] = Photochemistry under 405 nm illumination, analysis by LC-MS; type: physicochemical; conditions: PBS, 5 and 20 min
Description: To investigate photochemistry, solutions of 8, 11, and 13-15 (100 μM) were prepared in PBS and placed in a glass vial. An aliquot of this freshly prepared solution was immediately analyzed by LC-MS (−hv). The solution was then irradiated with 405 nm light from an LED array (LOCTITE CL20 flood array) for 5 min (t=5 min) and 20 min (t=20 min) followed by analysis using LC-MS. Photochemical adducts 17/17i and 18/18i were purified and the spectral properties of these isomeric mixtures were analyzed. These compounds were then treated with 1 or 2 equivalents of NaOH(aq) to hydrolyze the iminium bond; the resulting oxidized coumarin products S1/S1i and S2/S2i were observed by LC-MS.

[6] = tested on: U2OS cells; experiment: In-cell photostability experiments; type: cell-based; conditions: 405 nm laser, 15 photobleaching cycles
Description: In-cell photostability experiments (FIG. 9C). U2OS cells were incubated with 15 (200 nM), 20 (200 nM) or MitoView 405 (100 nM; Biotium) for 1 h at 37° C. and imaged live without washing using a Leica SP8 Falcon confocal microscope with enabled adaptive focus control (AFC), an HC PL-APO 86×/1.20 water objective, and a 405 nm diode laser at 58.9% laser power. […] These images were processed using FIJI.^25

[7] = Chemical stability (iminium hydrolysis) by LC-MS; type: physicochemical; conditions: 25 μM; citrate pH 5, PBS pH 7.4, Tris pH 9; sampled every 30 min over 12 h
Description: Measurement of chemical stability and photostability by tandem high-pressure liquid chromatography-mass spectrometry (LC-MS; FIG. 3A-D, FIG. 4A-4D, FIG. 6, FIG. 10). To examine the chemical stability and photostability of the DAB dyes, samples were assessed by tandem high-pressure liquid chromatography-mass spectrometry (LC-MS) using an Agilent 1200 LC-MS system equipped with an autosampler, diode array detector, and mass spectrometry detector (ESI; positive ion mode) using a 4.6×150 mm Gemini NX-C18 column with a 5-95% or 5-50% gradient of CH3CN in H2O containing constant 0.1% (v/v) TFA. Chromatograms were monitored using absorbance at 254 nm or 400 nm. To investigate chemical hydrolysis, solutions of 8, 11, and 13-15 (100 μM) were prepared in PBS, pH 7.4. An aliquot of this freshly prepared solution was immediately analyzed by LC-MS (t=0). The solution was then incubated at ambient temperature protected from light for 48 h and analyzed again by LC-MS (t=48 h). Standard samples of coumarins 6, 10, and 12 (100 μM, PBS) were analyzed in the same manner. To compare the stability of compounds 15 and 20 under different conditions, solutions of each dye (25 μM) in citrate buffer, pH 5, PBS, pH 7.4, or Tris buffer, pH 9 were prepared in an autosampler vial and the sample was analyzed using the LC-MS instrumentation every 30 min. […]

Structure (SMILES)	fluorescence quantum yield (Φf) ([1]; PBS, pH 7.4)	Stokes shift ([2]; PBS, pH 7.4)	bathochromic shift in λabs relative to parent coumarin ([2]; PBS, pH 7.4)	shift in λem relative to parent coumarin ([2]; PBS, pH 7.4)	maximum fluorescence emission wavelength (λem) ([2]; PBS, pH 7.4)	absorptivity, quantum yield and brightness in nonpolar conditions relative to PBS [2]	also measured
CCN(CC)c1ccc2c(C)cc(=O)oc2c1 [Compound 6, 7-diethylamino-4-methylcoumarin, reference compound]	0.06						
CCN(CC)c1ccc2c(C)cc(N(CC)CC)[o+]c2c1.O=C([O-])C(F)(F)F [Compound 8, 2,7-Bis(diethylamino)-4-methylbenzopyrylium trifluoroacetate]	0.16	65 nm	45 nm	26 nm			
Cc1cc(N2CCC2)[o+]c2cc(N3CCC3)ccc12.O=C([O-])C(F)(F)F [Compound 11, 2,7-Di(azetidin-1-yl) 4-methylbenzopyrylium trifluoroacetate]	0.79	99 nm	48 nm	34 nm			
CC[N+](CC)=c1cc(C)c2cc3c4c(c2o1)CCCN4CCC3.O=C([O-])C(F)(F)F [Compound 13, N-ethyl-N-(9-methyl-2,3,6,7-tetrahydro-1H,5H,11H-pyrano[2,3-f]pyrido[3,2,1-ij]quinolin-11-ylidene)ethanaminium trifluoroacetate]		68 nm			513 nm		
Cc1cc(=[N+]2CCCCC2)oc2c3c4c(cc12)CCCN4CCC3.O=C([O-])C(F)(F)F [Compound 15, 1-(9-methyl-2,3,6,7-tetrahydro-1H,5H,11H-pyrano[2,3-f]pyrido[3,2,1-ij]quinolin-11-ylidene)piperidin-1-ium trifluoroacetate]						higher absorptivity and fluorescence quantum yield	rate of hydrolysis in different buffer conditions [3]: modestly higher rates of hydrolysis was observed at elevated pH or in cell culture media containing serum; cellular signal upon media exchange (retention) ([4]; trifluoroacetate): rapidly decreased upon media exchange; also recorded: signal rapidly decreased; photochemical oxidation [5]: no photochemically driven oxidation was detected on the piperidine ring
Cc1cc(=[N+]2CCC(CCCC3CC[N+](=c4cc(C)c5cc6c7c(c5o4)CCCN7CCC6)CC3)CC2)oc2c3c4c(cc12)CCCN4CCC3.O=C([O-])C(F)(F)F.O=C([O-])C(F)(F)F (stereo not shown) [Compound 20, 4,4′-(propane-1,3-diyl)bis(1-(9-methyl-2,3,6,7-tetrahydro-1H,5H,11H-pyrano[2,3-f]pyrido[3,2,1-ij]quinolin-11-ylidene)piperidin-1-ium) trifluoroacetate]	0.45				524 nm	brighter in dioxane:water mixtures	resistance to photobleaching in live cells [6]: best overall photostability; rate of hydrolysis relative to 15 [7]: slightly higher rate of hydrolysis; extinction coefficient at λabs (ε) ([2]; PBS containing 0.1% w/v SDS): 78,900 M^−1 cm^−1; maximum absorption wavelength (λabs) ([2]; PBS, pH 7.4): 447 nm; extinction coefficient at λabs (ε) ([2]; aqueous solution (PBS, pH 7.4)): 45,200 M^−1 cm^−1; fluorescence quantum yield (Φf) ([1]; PBS containing 0.1% w/v SDS): 0.83; cellular signal upon media exchange (retention) [4]: retained
